{"source": "patent US11149033B2", "about": "“Heteroaryl compound, enantiomer, diastereomer or pharmaceutically acceptable salt thereof, and antiviral composition containing same as active ingredient” (priority 2016, dated 2021)", "key": {"[1]": {"experiment": "in vitro"}, "[2]": {"test_system": "A/Perth/16/2009 (H3N2)", "experiment": "Antiviral activity (drug efficacy evaluation by concentration) against A/Perth/16/2009 (H3N2)", "assay_type": "cell-based, A type influenza virus", "details": "Influenza A virus, H3N2; read-out: EC50"}, "[3]": {"details": "CC50, third EC50/CC50 column pair (c7), beside the EC50 of c6"}, "[4]": {"details": "CC50 B/Florida/04/2006, cytotoxicity in the B/Florida/04/2006 assay"}}, "note": "pEC50: −log10 of the molar value.", "data": [{"compound": "Fc1cccc(/C=C/c2nnc(Cc3cccc(Br)c3)o2)c1F", "note": "[Compound 280, 2-(3-bromobenzyl)-5-(2,3-difluorostyryl)-1,3,4-oxadiazole]", "values": [{"measurement": "melting point", "value": 97.4, "unit": "°C"}]}, {"compound": "Fc1ccc(/C=C/c2nnc(Cc3cccc(C(F)F)c3)o2)c(Cl)c1", "note": "[Compound 299, 2-(2-chloro-4-fluorostyryl)-5-(3-(difluoromethyl)benzyl)-1,3,4-oxadiazole]", "values": [{"measurement": "melting point", "value": 108.1, "unit": "°C"}]}, {"compound": "Cc1ccccc1CSc1ncc(CNc2ccc(Br)cc2)o1", "note": "[Compound 99, 4-bromo-N-((2-((2-methylbenzyl)thio)oxazol-5-yl)methyl)aniline]", "values": [{"measurement": "CC50", "setting": "[1]; CC50, beside the EC50 of c2", "value": "> 50", "unit": "µM"}, {"measurement": "CC50", "setting": "[1]; CC50, beside the EC50 of c4", "value": "> 50", "unit": "µM"}, {"measurement": "CC50", "setting": "[1]; [3]", "value": "> 50", "unit": "µM"}]}, {"compound": "Clc1ncccc1/C=C/c1nnc(Cc2cccc(Br)c2)o1", "note": "[Compound 225, 2-(3-bromobenzyl)-5-(2-(2-chloropyridin-3-yl)vinyl)-1,3,4-oxadiazole]", "values": [{"measurement": "melting point", "value": 162.5, "unit": "°C"}]}, {"compound": "Cc1ccc(Br)cc1Cc1nnc(/C=C/c2ccc(F)cc2Cl)o1", "note": "[Compound 282, 2-(5-bromo-2-methylbenzyl)-5-(2-chloro-4-fluorostyryl)-1,3,4-oxadiazole]", "values": [{"measurement": "melting point", "value": 169.3, "unit": "°C"}]}, {"compound": "Fc1ccc(/C=C/c2nnc(Cc3cccc(Cl)n3)o2)c(Cl)c1", "note": "[Compound 219, 2-(2-chloro-4-fluorostyryl)-5-((6-chloropyridin-2-yl)methyl)-1,3,4-oxadiazole]", "values": [{"measurement": "melting point", "value": 145.2, "unit": "°C"}]}, {"compound": "Cc1ccccc1CCc1nnc(Cc2ccc(F)c(Cl)c2)o1", "note": "[Compound 108, 2-(3-chloro-4-fluorobenzyl)-5-(2-methylphenethyl)-1,3,4-oxadiazole]", "values": [{"measurement": "pEC50", "setting": "[2]", "value": "< 4.30"}, {"measurement": "CC50", "setting": "[1]; CC50, beside the EC50 of c2", "value": "> 50", "unit": "µM"}, {"measurement": "CC50", "setting": "[1]; CC50, beside the EC50 of c4", "value": "> 50", "unit": "µM"}, {"measurement": "CC50", "setting": "[1]; [3]", "value": "> 50", "unit": "µM"}]}, {"compound": "Fc1cc(F)c(/C=C/c2nnc(Cc3cccc(Br)c3)o2)c(Br)c1", "note": "[Compound 290, 2-(2-bromo-4,6-difluorostyryl)-5-(3-bromobenzyl)-1,3,4-oxadiazole]", "values": [{"measurement": "melting point", "value": 118.2, "unit": "°C"}]}, {"compound": "[O-][S+](Cc1ccccc1-c1ccccc1)c1nnc(Cc2ccc(Br)cc2)o1", "note": "(stereo not shown) [Compound 59, 2-(([1,1′-biphenyl]-2-ylmethyl)sulfinyl)-5-(4-bromobenzyl)-1,3,4-oxadiazole]", "values": [{"measurement": "CC50", "setting": "[1]; [4]", "value": "> 50", "unit": "µM"}]}, {"compound": "CC(C)c1ccc(Cc2nnc(SCc3ccccc3-c3ccccc3)o2)cc1", "note": "[Compound 107, 2-(([1,1′-biphenyl]-2-ylmethyl)thio)-5-(4-isopropylbenzyl)-1,3,4-oxadiazole]", "values": [{"measurement": "pEC50", "setting": "[2]", "value": 4.69}, {"measurement": "CC50", "setting": "[1]; CC50, beside the EC50 of c2", "value": "> 50", "unit": "µM"}, {"measurement": "CC50", "setting": "[1]; CC50, beside the EC50 of c4", "value": "> 50", "unit": "µM"}, {"measurement": "CC50", "setting": "[1]; [3]", "value": "> 50", "unit": "µM"}]}, {"compound": "Fc1ccc(/C=C/c2nnc(CCc3cccc(Br)c3)o2)c(Cl)c1", "note": "[Compound 223, 2-(3-bromophenethyl)-5-(2-chloro-4-fluorostyryl)-1,3,4-oxadiazole]", "values": [{"measurement": "melting point", "value": 108.7, "unit": "°C"}]}, {"compound": "CN(c1ccc(Br)cc1)c1nnc(SCc2ccccc2-c2ccccc2)o1", "note": "[Compound 65, 5-(([1,1′-biphenyl]-2-ylmethyl)thio)-N-(4-bromophenyl)-N-methyl-1,3,4-oxadiazol-2-amine]", "values": [{"measurement": "CC50", "setting": "[1]; [4]", "value": "> 50", "unit": "µM"}]}, {"compound": "Oc1ccccc1/C=C/c1nnc(Cc2cccc(Br)c2)o1", "note": "[Compound 218, 2-(2-(5-(3-bromobenzyl)-1,3,4-oxadiazol-2-yl)vinyl)phenol]", "values": [{"measurement": "melting point", "value": 179.9, "unit": "°C"}]}, {"compound": "Fc1ccc(/C=C/c2nnc(Cc3cc(Br)ccn3)o2)c(Cl)c1", "note": "[Compound 283, 2-((4-bromopyridin-2-yl)methyl)-5-(2-chloro-4-fluorostyryl)-1,3,4-oxadiazole]", "values": [{"measurement": "melting point", "value": 149.5, "unit": "°C"}]}, {"compound": "Cc1ccc(Cc2nnc(/C=C/c3ccc(F)cc3N(C)CCc3ccccc3)o2)cc1Br", "note": "[Compound 305, 2-(2-(5-(3-bromo-4-methylbenzyl)-1,3,4-oxadiazol-2-yl)vinyl)-5-fluoro-N-methyl-N-phenethylaniline]", "values": [{"measurement": "melting point", "value": 80.7, "unit": "°C"}]}, {"compound": "CC(C)c1ccccc1/C=C/c1nnc(Cc2ccccc2)o1", "note": "[Compound 196, 2-benzyl-5-(2-isopropylstyryl)-1,3,4-oxadiazole]", "values": [{"measurement": "CC50", "setting": "[1]; CC50, beside the EC50 of c2", "value": "> 50", "unit": "µM"}, {"measurement": "CC50", "setting": "[1]; CC50, beside the EC50 of c4", "value": "> 50", "unit": "µM"}, {"measurement": "CC50", "setting": "[1]; [3]", "value": "> 50", "unit": "µM"}]}, {"compound": "Cc1cc(F)ccc1/C=C/c1nnc(Cc2cccc(Br)c2)o1", "note": "[Compound 186, 2-(3-bromobenzyl)-5-(4-fluoro-2-methylstyryl)-1,3,4-oxadiazole]", "values": [{"measurement": "CC50", "setting": "[1]; CC50, beside the EC50 of c2", "value": "> 50", "unit": "µM"}, {"measurement": "CC50", "setting": "[1]; CC50, beside the EC50 of c4", "value": "> 50", "unit": "µM"}, {"measurement": "CC50", "setting": "[1]; [3]", "value": "> 50", "unit": "µM"}]}, {"compound": "Cc1ccc2cccc(Cc3nnc(/C=C/c4ccc(F)cc4Cl)o3)c2n1", "note": "[Compound 295, 2-(2-chloro-4-fluorostyryl)-5-((2-methylquinolin-8-yl)methyl)-1,3,4-oxadiazole]", "values": [{"measurement": "melting point", "value": 191.2, "unit": "°C"}]}, {"compound": "CSc1nnc(Cc2ccccc2)o1", "note": "[Compound 80, 2-benzyl-5-(methylthio)-1,3,4-oxadiazole]", "values": [{"measurement": "CC50", "setting": "[1]; [4]", "value": "> 50", "unit": "µM"}]}, {"compound": "Fc1cc(Br)cc(Cc2nnc(/C=C/c3ccc(F)cc3Cl)o2)c1", "note": "[Compound 292, 2-(3-bromo-5-fluorobenzyl)-5-(2-chloro-4-fluorostyryl)-1,3,4-oxadiazole]", "values": [{"measurement": "melting point", "value": 143, "unit": "°C"}]}, {"compound": "Fc1cccc(Cc2nnc(/C=C/c3ccc(F)cc3Cl)o2)c1", "note": "[Compound 226, 2-(2-chloro-4-fluorostyryl)-5-(3-fluorobenzyl)-1,3,4-oxadiazole]", "values": [{"measurement": "melting point", "value": 132.5, "unit": "°C"}]}, {"compound": "Cc1ccc(Cc2nnc(/C=C/c3ccc(F)cc3Cl)o2)cc1Cl", "note": "[Compound 300, 2-(2-chloro-4-fluorostyryl)-5-(3-chloro-4-methylbenzyl)-1,3,4-oxadiazole]", "values": [{"measurement": "melting point", "value": 161.4, "unit": "°C"}]}, {"compound": "Fc1ccc(/C=C/c2nnc(Cc3cccc(C4CC4)c3)o2)c(Cl)c1", "note": "[Compound 267, 2-(2-chloro-4-fluorostyryl)-5-(3-cyclopropylbenzyl)-1,3,4-oxadiazole]", "values": [{"measurement": "melting point", "value": 110.2, "unit": "°C"}]}, {"compound": "Fc1cc(F)c(/C=C/c2nnc(Cc3cccc(Br)c3)o2)c(Cl)c1", "note": "[Compound 245, 2-(3-bromobenzyl)-5-(2-chloro-4,6-difluorostyryl)-1,3,4-oxadiazole]", "values": [{"measurement": "melting point", "value": 112, "unit": "°C"}]}, {"compound": "FC(F)(F)Oc1ccccc1/C=C/c1nnc(Cc2cccc(Br)c2)o1", "note": "[Compound 256, 2-(3-bromobenzyl)-5-(2-(trifluoromethoxy)styryl)-1,3,4-oxadiazole]", "values": [{"measurement": "melting point", "value": 103.6, "unit": "°C"}]}, {"compound": "Cc1cccc(Cc2nnc(/C=C/c3ccc(F)cc3Cl)o2)c1C", "note": "[Compound 221, 2-(2-chloro-4-fluorostyryl)-5-(2,3-dimethylbenzyl)-1,3,4-oxadiazole]", "values": [{"measurement": "melting point", "value": 139.3, "unit": "°C"}]}, {"compound": "Fc1ccc(/C=C/c2nnc(Cc3cccc(Br)c3)o2)c(C(F)(F)F)c1", "note": "[Compound 264, 2-(3-bromobenzyl)-5-(4-fluoro-2-(trifluoromethyl)styryl)-1,3,4-oxadiazole]", "values": [{"measurement": "melting point", "value": 137.3, "unit": "°C"}]}, {"compound": "Cc1nc2ccccc2n1Cc1nnc(/C=C/c2ccc(F)cc2Cl)o1", "note": "[Compound 203, (E)-2-(2-chloro-4-fluorostyryl)-5-((2-methyl-1H-benzo[d]imidazol-1-yl)methyl)-1,3,4-oxadiazole]", "values": [{"measurement": "pEC50", "setting": "[2]", "value": 4.81}, {"measurement": "CC50", "setting": "[1]; CC50, beside the EC50 of c2", "value": "> 50", "unit": "µM"}, {"measurement": "CC50", "setting": "[1]; CC50, beside the EC50 of c4", "value": "> 50", "unit": "µM"}, {"measurement": "CC50", "setting": "[1]; [3]", "value": "> 50", "unit": "µM"}]}, {"compound": "Fc1ccc(Oc2ccccc2/C=C/c2nnc(Cc3ccc(Br)cc3)o2)cc1", "note": "[Compound 155, 2-(4-bromobenzyl)-5-(2-(4-fluorophenoxy)styryl)-1,3,4-oxadiazole]", "values": [{"measurement": "CC50", "setting": "[1]; CC50, beside the EC50 of c2", "value": "> 50", "unit": "µM"}, {"measurement": "CC50", "setting": "[1]; CC50, beside the EC50 of c4", "value": "> 50", "unit": "µM"}, {"measurement": "CC50", "setting": "[1]; [3]", "value": "> 50", "unit": "µM"}]}, {"compound": "Brc1ccc(Cc2nnc(-c3ccc4ccccc4c3)o2)cc1", "note": "[Compound 98, 2-(4-bromobenzyl)-5-(naphthalen-2-yl)-1,3,4-oxadiazole]", "values": [{"measurement": "CC50", "setting": "[1]; CC50, beside the EC50 of c2", "value": "> 50", "unit": "µM"}, {"measurement": "CC50", "setting": "[1]; CC50, beside the EC50 of c4", "value": "> 50", "unit": "µM"}, {"measurement": "CC50", "setting": "[1]; [3]", "value": "> 50", "unit": "µM"}]}, {"compound": "CC(C)c1ccccc1/C=C/c1nnc(Cc2ccc(-c3ccccc3)cc2)o1", "note": "[Compound 142, 2-([1,1′-biphenyl]-4-ylmethyl)-5-(2-isopropylstyryl)-1,3,4-oxadiazole]", "values": [{"measurement": "CC50", "setting": "[1]; CC50, beside the EC50 of c2", "value": "> 50", "unit": "µM"}, {"measurement": "CC50", "setting": "[1]; CC50, beside the EC50 of c4", "value": "> 50", "unit": "µM"}, {"measurement": "CC50", "setting": "[1]; [3]", "value": "> 50", "unit": "µM"}]}]}
